# Test results as given in patent US20220127297A1, “Novel Antibacterial 3"-Derivatives Of 4,6-Disubstituted 2,5-Dideoxystreptamine Aminoglycoside Antibiotics” (AGILeBiotics B.V., priority 2018, published 2022).
# Tested on: E. coli (AAC(3)III)
# Assay: MIC 50, broth micro-dilution, E. coli expressing AAC(3)III
# Assay type: cell-based, Escherichia coli
# Settings: ATCC25922 harboring plasmid encoding AAC(3)III
# Description: Cloning resistant enzymes. An Escherichia coli codon optimized gene encoding AAC(3)-III (GenBank acc.nr. X55652.1; SEQ ID NO:1), including a promoter and terminator sequence, was synthesized by Integrated DNA Technologies, Belgium. The synthesized gene and pBluescript II KS(+) plasmid were digested using the restriction enzymes SacI and SalI, and purified from a 1% TBE-agarose gel using the illustra Gel Band purification kit. The purified linear plasmid and T4 DNA ligase were used to ligate aac(3)-III under control of the constitutive lipoprotein Ipp promoter and ribosomal RNA rrnC terminator, resulting in pBlue_Ipp_aacC3_rrnC.
# Plasmid transformation. Approximately 500 ng of the pET-9b(+) (Cat. No. 69432-3, Merck), pAT21-1 (provided by Prof. Dr. Patrice Courvalin, M.D., Pasteur Institute, France; prepared according to Trieu-Cuot et. al, Mol. Gen. Genet. 198(2), 348 (1985)), pBluescript::AAC(6′)-Ie/APH(2″)-Ia (provided by Prof. Dr. Sergei Vakulenko, M.D., University of Notre Dame, Ind., USA; prepared according to S. B. Vakulenko et. al., J. Biol. Chem. 287 (52), 43262 (2012)), pBlue_lpp_aacC3_rrnC and pSET152 (Cat. No. PVT3395, Life Science Market; prepared according to Bierman et al., Gene 116 (1), 43 (1992)) plasmids, encoding APH(3′)-Ia (SEQ ID NO:2), APH(3′)-IIIa (SEQ ID NO:3), AAC(6′)Ie-APH(2″)-Ia (SEQ ID NO:4), AAC(3)-III (SEQ ID NO:1), and AAC(3)-IV (SEQ ID NO:5) respectively, were individually incubated in a vial of competent cells for 15 min on ice. The cells were subsequently heated to 42° C. for 90 s, and cooled on ice for 1 min. After addition of 900 μL LB, the cells were incubated for 1 h at 37° C. and 200 rpm. Cells were plated on LB-agar supplemented with 50 μg/mL KanaA and incubated for 18 h at 37° C. The next day, a single colony was inoculated in 5 mL LB supplemented with 50 μg/mL and grown for 18 h at 37° C. and 200 rpm. A 200 μL sample of each culture was diluted with 200 μL of 40% v/v glycerol in water, and stored at −80° C. The plasmid was purified from the remaining culture using the Plasmid Miniprep kit. Plasmid DNA was investigated by Eurofins Genomics (Germany) to confirm the identity of the aminoglycoside resistance genes.
# 3.1 Against E. coli Strains
# Tested reference compounds. Amikacin sulfate (Cat. No. 01693, Chem-Impex), Gentamicin sulfate (Cat. No. G4918, Sigma Aldrich).
# Microbial strains. E. coli ATCC 25922, E. coli ATCC 25922/pET-9b(+), E. coli ATCC 25922/pAT21-1, E. coli ATCC 25922/pBluescript::AAC(6′)-Ie/APH(2″)-Ia, E. coli ATCC 25922/pBlue_lpp_aacC3_rrnC, E. coli ATCC 25922/pSET152.
# Culture media and equipment. BBL™ Mueller Hinton Broth 2 (Lot. BCBW1143, Cat. No. 70192, Sigma); Kanamycin A (Cat. No. A1493, AppliChem); 96-well deep well plate, 1 mL (Cat. No. 0030506.200, Eppendorf); Plate lids (Cat. No. 0030131.525, Eppendorf); 96-well plate, F-bottom (Cat. No. 781602, Brand; Incubator, Infors Multitron Pro); Laminar flow (Heraeus KS12); UV/VIS meter (Eppendorf BioPhotometer Plus); Platereader (Tecan Sunrise).
# Compound preparation. Compounds were prepared in MH2 media at a concentration of 5 mM and stored at 4° C. For testing, solutions of 128 μM were prepared in MH2. Out of these working solutions, 400 μL was transferred to wells in the first column of 96-well deep well plates. Each compound was transferred in triplicate. Plates were previously filled with 200 μL of MH2 media in all wells except for the wells in the first column. After compound and antibiotic addition, the compounds were serial two-fold diluted by transferring 200 μL from the first to the second column, then from the second to the third column and so on. Finally, 200 μL was removed from the last column.
# Inoculum preparation. Microorganisms used were all revived from 20% glycerol (40% v/v glycerol in water was diluted with MH2) storage at −80° C. by inoculating them in 5 mL MH2. inoculums of E. coli containing a plasmid were selected for by adding 50 μg/mL KanaA.
row,Compound,MIC50
1,"NCCC(O)C(=O)NC1CC(N)C(OC2OC(CN)C(O)C(O)C2N)C(O)C1OC1OC(CO)C(O)C(N)C1O (stereo not drawn) [ABX4001, KanaB-AHB]",1 to 2 µM
2,"N=C(N)NC1[C@@H](O)C(OC2[C@@H](O)[C@H](O[C@H]3OC(CN)[C@@H](O)CC3N)C(N)C[C@H]2NC(=O)[C@@H](O)CCN)O[C@H](CO)[C@H]1O (stereo partly drawn) [ABX5005, Tobra-AHB-Gua]",0.5 µM
3,"NCC[C@H](O)C(=O)N[C@@H]1CC(N)[C@@H](O[C@H]2OC(CN)[C@@H](O)[C@@H](O)C2N)[C@H](O)C1OC1O[C@H](CO)[C@@H](O)C(N)[C@H]1O (stereo partly drawn) [ABX4002, 3′Epi-KanaB-AHB]",4 µM
4,"N=C(N)N[C@@H]1[C@@H](O)[C@@H](O[C@@H]2[C@@H](O)[C@H](O[C@H]3O[C@H](CN)[C@@H](O)[C@@H](O)[C@H]3N)[C@@H](N)C[C@H]2NC(=O)[C@@H](O)CCN)O[C@H](CO)[C@H]1O [ABX4005, 3′Epi-KanaB-AHB-Gua]",4 µM
5,"N=C(N)NC1[C@@H](O)C(OC2[C@@H](F)[C@H](O[C@H]3OC(CN)[C@@H](O)[C@H](O)C3N)C(N)C[C@H]2NC(=O)[C@@H](O)CCN)O[C@H](CO)[C@H]1O (stereo partly drawn) [ABX4004, 3′epi-KanaB-AHB-F-Gua]",0.5 µM
6,"N=C(N)NC1[C@@H](O)C(OC2[C@@H](O)[C@H](O[C@H]3OC(CN)[C@@H](O)[C@H](O)C3N)C(N)C[C@H]2NC(=O)[C@@H](O)CCN)O[C@H](CO)[C@H]1O (stereo partly drawn) [ABX4009, KanaB-AHB-Gua]",1 to 2 µM
7,"NCC[C@H](O)C(=O)N[C@@H]1CC(N)[C@@H](O[C@H]2OC(CN)[C@@H](O)CC2N)[C@H](F)C1OC1O[C@H](CO)[C@@H](O)C(N)[C@H]1O (stereo partly drawn) [ABX5024, Tobra-AHB-F]",1 µM
8,"NCC[C@H](O)C(=O)N[C@@H]1CC(N)[C@@H](O[C@H]2OC(CN)[C@@H](O)[C@@H](O)C2N)[C@H](F)C1OC1O[C@H](CO)[C@@H](O)C(N)[C@H]1O (stereo partly drawn) [ABX4003, 3′Epi-KanaB-AHB-F]",2 µM
9,"NCCC(O)C(=O)NC1CC(N)C(OC2OC(CN)C(O)C(O)C2O)C(F)C1OC1OC(CO)C(O)C(N)C1O (stereo not drawn) [ABX3005, 3′Epi-KanaA-AHB-F]",4 µM
10,"NCC[C@H](O)C(=O)N[C@@H]1C[C@H](N)[C@@H](O[C@H]2O[C@H](CN)[C@@H](O)[C@@H](O)[C@H]2O)[C@H](O)[C@H]1O[C@H]1O[C@H](CO)[C@@H](O)[C@H](N)[C@H]1O [ABX3002, 3′Epi-KanaA-AHB]",16 µM

# Same assay, conditions: Escherichia coli, ATCC25922, ATCC25922 harboring plasmid encoding AAC(3)III
row,Compound,MIC50
1,"N=C(NCCN)NC1C(O)[C@@H](CO)OC(OC2C(F)[C@H](O[C@H]3OC(CN)[C@@H](O)CC3N)C(N)C[C@H]2NC(=O)[C@@H](O)CCN)[C@@H]1O (stereo partly drawn) [ABX5020, Tobra-AHB-F-Gua-2-amino-ethyl]",0.25 to 0.5 µM
2,"N=C(NC[C@@H]1CCNC1)NC1[C@@H](O)C(OC2[C@@H](F)[C@H](O[C@H]3OC(CN)[C@@H](O)CC3N)C(N)C[C@H]2NC(=O)[C@@H](O)CCN)O[C@H](CO)[C@H]1O (stereo partly drawn) [ABX5039, Tobra-AHB-F-Gua (R) pyrrolidine-3-ylmethyl]",0.25 µM
3,"N=C(NCCO)NC1[C@@H](O)C(OC2[C@@H](F)[C@H](O[C@H]3OC(CN)[C@@H](O)CC3N)C(N)C[C@H]2NC(=O)[C@@H](O)CCN)O[C@H](CO)[C@H]1O (stereo partly drawn) [ABX5029, Tobra-AHB-F-Gua 2-hydroxy-ethyl]",0.5 µM
4,"N=C(NCCCO)NC1[C@@H](O)C(OC2[C@@H](F)[C@H](O[C@H]3OC(CN)[C@@H](O)CC3N)C(N)C[C@H]2NC(=O)[C@@H](O)CCN)O[C@H](CO)[C@H]1O (stereo partly drawn) [ABX5041, Tobra-AHB-F-Gua 3-hydroxy-propyl]",0.5 µM
5,"N=C(N)NC1[C@@H](O)C(OC2[C@@H](F)[C@H](O[C@H]3OC(CN)[C@@H](O)[C@H](O)C3N)C(N)C[C@H]2NC(=O)[C@@H](O)CCN)O[C@H](CO)[C@H]1O (stereo partly drawn) [ABX4006, KanaB-AHB-F-Gua]",0.25 µM
6,"N=C(NCC1CC1)NC1[C@@H](O)C(OC2[C@@H](F)[C@H](O[C@H]3OC(CN)[C@@H](O)CC3N)C(N)C[C@H]2NC(=O)[C@@H](O)CCN)O[C@H](CO)[C@H]1O (stereo partly drawn) [ABX5027, Tobra-AHB-F-Gua cyclopropylmethyl]",0.25 µM
7,"N=C(NC[C@@H]1CNCCO1)NC1[C@@H](O)C(OC2[C@@H](F)[C@H](O[C@H]3OC(CN)[C@@H](O)CC3N)C(N)C[C@H]2NC(=O)[C@@H](O)CCN)O[C@H](CO)[C@H]1O (stereo partly drawn) [ABX5040, Tobra-AHB-F-Gua (S) morpholin-2-yl methyl]",0.25 µM
8,"C[C@@H](N)CCNC(=N)NC1[C@@H](O)C(OC2[C@@H](F)[C@H](O[C@H]3OC(CN)[C@@H](O)CC3N)C(N)C[C@H]2NC(=O)[C@@H](O)CCN)O[C@H](CO)[C@H]1O (stereo partly drawn) [ABX5047, Tobra-AHB-F-Gua (R) 3-amino-butyl]",0.25 µM
9,"N=C(NC[C@H]1CCNC1)NC1[C@@H](O)C(OC2[C@@H](F)[C@H](O[C@H]3OC(CN)[C@@H](O)CC3N)C(N)C[C@H]2NC(=O)[C@@H](O)CCN)O[C@H](CO)[C@H]1O (stereo partly drawn) [ABX5042, Tobra-AHB-F-Gua (S) pyrrolidine-3-ylmethyl]",0.125 µM
10,"N=C(NC[C@H]1CNCCO1)NC1[C@@H](O)C(OC2[C@@H](F)[C@H](O[C@H]3OC(CN)[C@@H](O)CC3N)C(N)C[C@H]2NC(=O)[C@@H](O)CCN)O[C@H](CO)[C@H]1O (stereo partly drawn) [ABX5043, Tobra-AHB-F-Gua (R) morpholin-2-yl methyl]",0.25 µM
11,"N=C(N)NC1C(O)[C@@H](CO)OC(OC2C(F)[C@H](O[C@H]3OC(CN)[C@@H](O)CC3N)C(N)C[C@H]2NC(=O)[C@@H](O)CCN)[C@@H]1O (stereo partly drawn) [ABX5006, Tobra-AHB-F-Gua]",0.25 µM
12,"CC(C)(C)CCNC(=N)NC1[C@@H](O)C(OC2[C@@H](F)[C@H](O[C@H]3OC(CN)[C@@H](O)CC3N)C(N)C[C@H]2NC(=O)[C@@H](O)CCN)O[C@H](CO)[C@H]1O (stereo partly drawn) [ABX5025, Tobra-AHB-F-Gua 2-tBu-ethyl]",0.5 µM
13,"N=C(NCC1CCCO1)NC1[C@@H](O)C(OC2[C@@H](F)[C@H](O[C@H]3OC(CN)[C@@H](O)CC3N)C(N)C[C@H]2NC(=O)[C@@H](O)CCN)O[C@H](CO)[C@H]1O (stereo partly drawn) [ABX5046, Tobra-AHB-F-Gua tetrahydrofuran-2-yl methyl]",0.5 µM
14,"N=C(NC[C@@H]1CCCN1)NC1[C@@H](O)C(OC2[C@@H](F)[C@H](O[C@H]3OC(CN)[C@@H](O)CC3N)C(N)C[C@H]2NC(=O)[C@@H](O)CCN)O[C@H](CO)[C@H]1O (stereo partly drawn) [ABX5026, Tobra-AHB-F-Gua (S) pyrrolidine-2-yl-methyl]",0.25 µM
15,"N=C(NCCCN)NC1[C@@H](O)C(OC2[C@@H](F)[C@H](O[C@H]3OC(CN)[C@@H](O)CC3N)C(N)C[C@H]2NC(=O)[C@@H](O)CCN)O[C@H](CO)[C@H]1O (stereo partly drawn) [ABX5030, Tobra-AHB-F-Gua-3-amino-propyl]",0.25 µM
16,"N=C(NCC1CCOC1)NC1[C@@H](O)C(OC2[C@@H](F)[C@H](O[C@H]3OC(CN)[C@@H](O)CC3N)C(N)C[C@H]2NC(=O)[C@@H](O)CCN)O[C@H](CO)[C@H]1O (stereo partly drawn) [ABX5051, Tobra-AHB-F-Gua tetrahydrofuran-3-yl methyl]",0.5 to 1 µM
17,"CNCCNC(=N)NC1[C@@H](O)C(OC2[C@@H](F)[C@H](O[C@H]3OC(CN)[C@@H](O)CC3N)C(N)C[C@H]2NC(=O)[C@@H](O)CCN)O[C@H](CO)[C@H]1O (stereo partly drawn) [ABX5038, Tobra-AHB-F-Gua 2-(methylamino)ethyl]",0.25 µM
